Reference: patent US20240391936A1, “TETRAHYDROTHIENO PYRIDINE DERIVATIVES AS DDRS INHIBITORS” (CHIESI FARMACEUTICI S.P.A., priority 2021, published 2024)

Key:
DDR1 [1] = biological target: T1, DDR1 (Homo sapiens, UniProt Q08345); experiment: DDR1 binding assay (LanthaScreen Europium Kinase Binding assay); parameters: purchased Carna Biosciences; conditions: binding assay, 5 nM DDR1, 20 nM Kinase Tracer 178; Ki from IC50 by Cheng-Prusoff; read-out: Ki DDR1
Outline: (§1)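 Compounds incubated 1 h at room temperature with 5 nM kinase, Kinase Tracer 178 (20 nM for DDR1, 10 nM for DDR2) and 2 nM Eu-anti-GST antibody in pH 7.5 HEPES/MgCl2/EGTA/BRIJ35 buffer. TR-FRET 665/615 nm ratio read after 340 nm excitation; IC50 from 4-parameter fit, converted to Ki by Cheng-Prusoff.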

DDR2 [2] = biological target: T2, DDR2 (Homo sapiens, UniProt Q16832); experiment: DDR2 cell based assay (phospho-ELISA in HEK293T-DDR2 recombinant cells); parameters: expressed in transfected cells; host or cells: HEK293T-DDR2 recombinant cells; conditions: bovine Type II Collagen 50 μg/ml
T2 sequence (Q16832 22-855): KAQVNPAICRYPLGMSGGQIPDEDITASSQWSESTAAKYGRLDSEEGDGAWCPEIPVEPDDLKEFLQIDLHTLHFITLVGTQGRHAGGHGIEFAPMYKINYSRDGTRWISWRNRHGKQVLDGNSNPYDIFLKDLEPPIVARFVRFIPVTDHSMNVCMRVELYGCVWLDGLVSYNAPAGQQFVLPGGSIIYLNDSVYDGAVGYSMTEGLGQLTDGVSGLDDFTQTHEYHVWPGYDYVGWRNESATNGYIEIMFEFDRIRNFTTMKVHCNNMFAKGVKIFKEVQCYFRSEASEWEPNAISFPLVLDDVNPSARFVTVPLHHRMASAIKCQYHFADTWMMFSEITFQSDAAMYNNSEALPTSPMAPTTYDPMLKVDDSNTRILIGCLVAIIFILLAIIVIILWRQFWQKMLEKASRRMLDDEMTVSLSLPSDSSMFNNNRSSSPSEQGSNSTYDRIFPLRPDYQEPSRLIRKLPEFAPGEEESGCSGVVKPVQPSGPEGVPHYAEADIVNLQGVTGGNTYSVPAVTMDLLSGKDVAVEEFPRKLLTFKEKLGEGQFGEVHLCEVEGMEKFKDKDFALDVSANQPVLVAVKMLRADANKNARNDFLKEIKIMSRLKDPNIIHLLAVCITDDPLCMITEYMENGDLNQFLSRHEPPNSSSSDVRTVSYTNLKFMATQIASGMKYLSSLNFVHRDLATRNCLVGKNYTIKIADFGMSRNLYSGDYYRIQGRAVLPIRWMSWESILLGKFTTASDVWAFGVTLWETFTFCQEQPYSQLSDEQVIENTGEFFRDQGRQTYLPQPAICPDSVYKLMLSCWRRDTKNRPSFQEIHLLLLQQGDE
Procedure: The inhibition of DDR2 phosphorylation by compounds was evaluated in HEK293T-DDR2 recombinant cells by phospho-ELISA assay. Briefly, HEK293T-DDR2 cells were seeded in poly-D-lysine-coated 24-well plates at a density of 250.000 cells/well and incubated for 1.5 hours at 37° C. and 5% CO2 in DMEM+10% FBS. After that, the medium was changed to serum-free DMEM and cells were incubated for 3 hours. Then. test compounds were added at different concentrations 30 minutes before stimulation with bovine Type II Collagen at 50 μg/ml for further 3 hours. For DDR2 phospho-ELISA assay (DuoSet IC Human Phospho-DDR2; R&D Systems), protein extracts were obtained by adding 60 μl/well of lysis buffer prepared according to the manufacturer's instructions. Protein concentration in the samples was determined by BCA assay and the levels of phospho-DDR2 were determined following R&D Systems indications. Raw data were normalized to maximal inhibition control (0% for normalization) and positive control (100% for normalization; cells treated with […] collagen II) and IC50 parameters were calculated in GraphPad Prism 8.0 software, using sigmoidal dose-response curve fitting with variable slope.

DDR2 [3] = biological target: T2, DDR2; experiment: DDR2 binding assay (LanthaScreen Europium Kinase Binding assay); parameters: purchased Life Technologies; conditions: binding assay, 5 nM DDR2, 10 nM Kinase Tracer 178; Ki from IC50 by Cheng-Prusoff; read-out: Ki DDR2
Outline: as §1

DDR1 [4] = biological target: T1, DDR1; experiment: DDR1 cell based assay (PathHunter U2OS DDR1 assay); parameters: host or cells: U2OS-DDR1 (PathHunter); conditions: U2OS-DDR1 cells, bovine Type II Collagen 20 μg/ml
Outline: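 U2OS-DDR1 PathHunter cells preincubated 30 min with compound, then stimulated overnight at 37 °C with 20 μg/ml bovine type II collagen. Luminescent complementation signal read after 1 h detection at room temperature; normalized to vehicle (0%) and collagen-only (100%) controls, IC50 from variable-slope sigmoidal fit.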

T1 sequence (Q08345 19-913): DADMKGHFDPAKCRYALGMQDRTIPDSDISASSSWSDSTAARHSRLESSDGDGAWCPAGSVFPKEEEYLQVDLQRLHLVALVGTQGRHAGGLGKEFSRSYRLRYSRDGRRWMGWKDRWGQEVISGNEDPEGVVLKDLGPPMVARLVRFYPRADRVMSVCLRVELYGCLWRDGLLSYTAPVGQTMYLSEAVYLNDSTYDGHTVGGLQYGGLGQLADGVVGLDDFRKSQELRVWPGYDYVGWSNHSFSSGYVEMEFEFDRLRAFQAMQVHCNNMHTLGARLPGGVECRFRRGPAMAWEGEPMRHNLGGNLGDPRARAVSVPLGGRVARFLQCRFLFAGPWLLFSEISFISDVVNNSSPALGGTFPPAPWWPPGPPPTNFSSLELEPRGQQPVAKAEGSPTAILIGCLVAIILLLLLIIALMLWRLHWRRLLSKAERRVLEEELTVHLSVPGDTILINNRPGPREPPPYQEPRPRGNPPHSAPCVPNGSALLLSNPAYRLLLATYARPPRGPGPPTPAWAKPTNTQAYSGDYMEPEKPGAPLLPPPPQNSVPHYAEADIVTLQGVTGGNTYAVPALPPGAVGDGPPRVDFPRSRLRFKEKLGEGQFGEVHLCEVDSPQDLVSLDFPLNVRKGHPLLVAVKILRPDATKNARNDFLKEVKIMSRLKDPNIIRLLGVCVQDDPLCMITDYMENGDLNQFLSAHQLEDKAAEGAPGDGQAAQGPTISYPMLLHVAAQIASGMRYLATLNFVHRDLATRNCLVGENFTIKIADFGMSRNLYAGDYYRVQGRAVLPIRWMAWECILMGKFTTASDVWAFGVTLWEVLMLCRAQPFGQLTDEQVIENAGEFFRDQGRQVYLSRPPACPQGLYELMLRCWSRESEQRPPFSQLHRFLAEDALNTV

| Ki (DDR1 [1]) [nM] | IC50 (DDR2 [2]) [nM] | Ki (DDR2 [3]) [nM] | IC50 (DDR1 [4]) [nM] | SMILES |
| --- | --- | --- | --- | --- |
| < 25 | 25 to 50 | < 25 | < 25 | O=C(Nc1cc(OCCN2CCOCC2)cc(C(F)(F)F)c1)c1csc2c1CCN(C(=O)c1cnc3ccccn13)C2 [Example 24, 6-(imidazo[1,2-a]pyridine-3-carbonyl)-N-(3-(2-morpholinoethoxy)-5-(trifluoromethyl)phenyl)-4,5,6,7-tetrahydrothieno[2,3-c]pyridine-3-carboxamide] |
| < 25 | < 25 | < 25 | < 25 | O=C(Nc1cc(F)cc(C(F)(F)F)c1)c1csc2c1CCN(C(=O)c1cnc3ccccn13)C2 [Example 46, N-(3-fluoro-5-(trifluoromethyl)phenyl)-6-(imidazo[1,2-a]pyridine-3-carbonyl)-4,5,6,7-tetrahydrothieno[2,3-c]pyridine-3-carboxamide] |
| < 25 | < 25 | < 25 | < 25 | O=C(Nc1cccc(OC(F)(F)F)c1)c1csc2c1CCN(Cc1cnc3[nH]ncc3c1)C2 [Example 66, 6-((1H-pyrazolo[3,4-b]pyridin-5-yl)methyl)-N-(3-(trifluoromethoxy)phenyl)-4,5,6,7-tetrahydrothieno[2,3-c]pyridine-3-carboxamide] |
| < 25 | 25 to 50 | < 25 | < 25 | O=C(Nc1cc(F)cc(C(F)(F)F)c1)c1csc2c1CCN(Cc1cnc3[nH]ncc3c1)C2 [Example 67, 6-((1H-pyrazolo[3,4-b]pyridin-5-yl)methyl)-N-(3-fluoro-5-(trifluoromethyl)phenyl)-4,5,6,7-tetrahydrothieno[2,3-c]pyridine-3-carboxamide] |
| < 25 | 25 to 50 | < 25 | < 25 | O=C(Nc1cccc(C(F)(F)F)c1)c1csc2c1CCN(Cc1cnc3[nH]ccc3c1)C2 [Example 69, 6-((1H-pyrrolo[2,3-b]pyridin-5-yl)methyl)-N-(3-(trifluoromethyl)phenyl)-4,5,6,7-tetrahydrothieno[2,3-c]pyridine-3-carboxamide] |
| < 25 | 25 to 50 | < 25 | < 25 | Cn1nc(C(C)(C)C)cc1NC(=O)c1csc2c1CCN(Cc1cnc3[nH]ccc3c1)C2 [Example 70, 6-((1H-pyrrolo[2,3-b]pyridin-5-yl)methyl)-N-(3-(tert-butyl)-1-methyl-1H-pyrazol-5-yl)-4,5,6,7-tetrahydrothieno[2,3-c]pyridine-3-carboxamide] |
| < 25 | < 25 | < 25 | < 25 | COc1ccc(NC(=O)c2csc3c2CCN(Cc2cnc4[nH]ccc4c2)C3)cc1C(F)(F)F [Example 71, 6-((1H-pyrrolo[2,3-b]pyridin-5-yl)methyl)-N-(4-methoxy-3-(trifluoromethyl)phenyl)-4,5,6,7-tetrahydrothieno[2,3-c]pyridine-3-carboxamide] |
| < 25 | < 25 | < 25 | < 25 | O=C(Nc1cccc(OC(F)(F)F)c1)c1csc2c1CCN(Cc1cnc3[nH]ccc3c1)C2 [Example 72, 6-((1H-pyrrolo[2,3-b]pyridin-5-yl)methyl)-N-(3-(trifluoromethoxy)phenyl)-4,5,6,7-tetrahydrothieno[2,3-c]pyridine-3-carboxamide] |
| < 25 | < 25 | 25 to 50 | < 25 | O=C(Nc1cc(F)cc(C(F)(F)F)c1)c1csc2c1CCN(Cc1cnc3[nH]ccc3c1)C2 [Example 73, 6-((1H-pyrrolo[2,3-b]pyridin-5-yl)methyl)-N-(3-fluoro-5-(trifluoromethyl)phenyl)-4,5,6,7-tetrahydrothieno[2,3-c]pyridine-3-carboxamide] |
| < 25 | < 25 | < 25 | < 25 | Cc1cn(-c2cc(NC(=O)c3csc4c3CCN(C(=O)c3cnc5ccccn35)C4)cc(C(F)(F)F)c2)cn1 [Example 74, 6-(imidazo[1,2-a]pyridine-3-carbonyl)-N-(3-(4-methyl-1H-imidazol-1-yl)-5-(trifluoromethyl)phenyl)-4,5,6,7-tetrahydrothieno[2,3-c]pyridine-3-carboxamide] |
| < 25 | < 25 | < 25 | < 25 | Cc1ccc(-n2nc(C(C)(C)C)cc2NC(=O)c2csc3c2CCN(Cc2cnc4[nH]ncc4c2)C3)cc1 [Example 75, 6-((1H-pyrazolo[3,4-b]pyridin-5-yl)methyl)-N-(3-(tert-butyl)-1-(p-tolyl)-1H-pyrazol-5-yl)-4,5,6,7-tetrahydrothieno[2,3-c]pyridine-3-carboxamide] |
| < 25 | < 25 | < 25 | < 25 | Cc1n[nH]c2ncc(CN3CCc4c(C(=O)Nc5cc(C(C)(C)C)nn5C)csc4C3)cc12 [Example 78, N-(3-(tert-butyl)-1-methyl-1H-pyrazol-5-yl)-6-((3-methyl-1H-pyrazolo[3,4-b]pyridin-5-yl)methyl)-4,5,6,7-tetrahydrothieno[2,3-c]pyridine-3-carboxamide] |
| < 25 | < 25 | < 25 | < 25 | O=C(Nc1cccc(C(F)(F)F)c1)c1csc2c1CCN(Cc1cnc3cnccn13)C2 [Example 84, 6-(imidazo[1,2-a]pyrazin-3-ylmethyl)-N-(3-(trifluoromethyl)phenyl)-4,5,6,7-tetrahydrothieno[2,3-c]pyridine-3-carboxamide] |
| < 25 | < 25 | < 25 | < 25 | O=C(Nc1cccc(C(F)(F)F)c1)c1csc2c1CCN(Cc1cnc3[nH]ncc3c1)C2 [Example 85, 6-((1H-pyrazolo[3,4-b]pyridin-5-yl)methyl)-N-(3-(trifluoromethyl)phenyl)-4,5,6,7-tetrahydrothieno[2,3-c]pyridine-3-carboxamide] |
| < 25 | < 25 | < 25 | < 25 | O=C(Nc1cccc(C(F)(F)F)c1)c1csc2c1CCN(Cc1ccnc3[nH]ccc13)C2 [Example 86, 6-((1H-pyrrolo[2,3-b]pyridin-4-yl)methyl)-N-(3-(trifluoromethyl)phenyl)-4,5,6,7-tetrahydrothieno[2,3-c]pyridine-3-carboxamide] |
| < 25 | < 25 | < 25 | < 25 | O=C(Nc1cccc(C(F)(F)F)c1)c1csc2c1CCN(C(=O)c1cnc3cnccn13)C2 [Example 90, 6-(imidazo[1,2-a]pyrazine-3-carbonyl)-N-(3-(trifluoromethyl)phenyl)-4,5,6,7-tetrahydrothieno[2,3-c]pyridine-3-carboxamide] |
| < 25 | < 25 | < 25 | < 25 | O=C(Nc1cccc(C(F)(F)F)c1)c1csc2c1CCN(C(=O)c1cnn3ccncc13)C2 [Example 93, 6-(pyrazolo[1,5-a]pyrazine-3-carbonyl)-N-(3-(trifluoromethyl)phenyl)-4,5,6,7-tetrahydrothieno[2,3-c]pyridine-3-carboxamide] |
